Consider 22 molecules from patent US20210380606A1, “5-AZAINDAZOLE DERIVATIVES AS ADENOSINE RECEPTOR ANTAGONISTS” (Merck Patent GmbH, priority 2018, published 2021).

Each structure is given as a SMILES string. Like-named read-outs stand apart in the source and are kept apart here.

The target in one assay is T1, human A2B receptors (Homo sapiens, UniProt P29275).
T1 construct: expressed in transfected cells; host or cells: HEK293
T1 sequence (P29275 1-332): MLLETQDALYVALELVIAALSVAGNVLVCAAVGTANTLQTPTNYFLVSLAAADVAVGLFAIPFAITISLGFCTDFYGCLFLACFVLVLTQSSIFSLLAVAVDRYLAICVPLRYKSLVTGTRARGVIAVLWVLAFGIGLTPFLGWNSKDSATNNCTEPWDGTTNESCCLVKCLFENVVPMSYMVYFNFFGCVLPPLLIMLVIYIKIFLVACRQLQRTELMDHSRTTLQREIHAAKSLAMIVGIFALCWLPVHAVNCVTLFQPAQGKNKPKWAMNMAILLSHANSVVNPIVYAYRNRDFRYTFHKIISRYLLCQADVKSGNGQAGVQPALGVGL
The experiment in a line: Functional human A2B receptor activity, recombinant HEK293 cells, cAMP (HTRF). As to conditions: read-out: A2B (Category). The format is cell-based. Summed up: (§1)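 Following a 15 min incubation, HTRF detection reagents are added and intracellular cAMP is quantified.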
In general terms: Time-resolved FRET reads energy transfer from a long-lived donor to a nearby acceptor.

A further assay has as its target T2, human A2A receptors (Homo sapiens, UniProt P29274).
T2 construct: expressed in transfected cells; host or cells: HEK293
The experiment in a line: Functional human A2A receptor activity, recombinant HEK293 cells, cAMP (HTRF). The format is cell-based. As to conditions: read-out: A2A (Category). In a few lines: as §1

T2 sequence (P29274 whole entry): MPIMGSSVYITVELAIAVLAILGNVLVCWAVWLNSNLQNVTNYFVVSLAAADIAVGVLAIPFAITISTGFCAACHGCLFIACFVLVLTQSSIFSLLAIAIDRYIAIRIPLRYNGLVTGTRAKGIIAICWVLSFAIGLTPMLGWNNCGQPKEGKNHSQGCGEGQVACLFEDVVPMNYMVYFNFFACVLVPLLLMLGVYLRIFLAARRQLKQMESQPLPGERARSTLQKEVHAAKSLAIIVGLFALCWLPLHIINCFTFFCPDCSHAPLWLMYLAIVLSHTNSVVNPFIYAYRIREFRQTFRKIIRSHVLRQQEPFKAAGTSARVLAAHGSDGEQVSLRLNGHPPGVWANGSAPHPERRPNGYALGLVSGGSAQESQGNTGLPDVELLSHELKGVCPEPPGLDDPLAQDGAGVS

For `O=C(c1cc2c(cn1)c(-c1coc3ccc(F)cc13)nn2CC(F)(F)F)N1CCCC(O)CC1` (centres unmarked) [Compound 122, [3-(5-fluorobenzofuran-3-yl)-1-(2,2,2-trifluoroethyl)pyrazolo[4,3-c]pyridin-6-yl]-(4-hydroxyazepan-1-yl)methanone], the IC50 on human A2B receptors and on human A2A receptors was under 100 nM throughout.
Consider `O=C(c1cc2c(cn1)c(-c1c[nH]c3ccc(F)cc13)nn2CC(F)(F)F)N1CCCOCC1` [Compound 123, [3-(5-fluoro-1H-indol-3-yl)-1-(2,2,2-trifluoroethyl)pyrazolo[4,3-c]pyridin-6-yl]-(1,4-oxazepan-4-yl)methanone], for which the IC50 at human A2B receptors and at human A2A receptors was under 100 nM each time.
Take `Cc1ccc2occ(-c3nn(CC(F)(F)F)c4cc(C(=O)N5CCCOCC5)ncc34)c2c1` [Compound 125, [3-(5-methylbenzofuran-3-yl)-1-(2,2,2-trifluoroethyl)pyrazolo[4,3-c]pyridin-6-yl]-(1,4-oxazepan-4-yl)methanone]: the IC50 at human A2B receptors was under 1000 nM; on human A2A receptors, under 100 nM.
The corresponding values for `Cc1oc2ccccc2c1-c1nn(CC(F)(F)F)c2cc(C(=O)N3CCCOCC3)ncc12` [Compound 126, [3-(2-methylbenzofuran-3-yl)-1-(2,2,2-trifluoroethyl)pyrazolo[4,3-c]pyridin-6-yl]-(1,4-oxazepan-4-yl)methanone] are under 1000 nM and under 100 nM.
The corresponding values for `O=C(c1cc2c(cn1)c(-c1coc3ccc(F)cc13)nn2CC(F)(F)F)N1CC2CCC(C1)O2` [Compound 127, [3-(5-fluorobenzofuran-3-yl)-1-(2,2,2-trifluoroethyl)pyrazolo[4,3-c]pyridin-6-yl]-(8-oxa-3-azabicyclo[3.2.1]octan-3-yl)methanone] are under 100 nM and under 100 nM.
The corresponding values for `O=C(c1cc2c(cn1)c(-c1cnc3ccc(F)cn13)nn2CC(F)(F)F)N1CCC(O)CC1` [Compound 131, [3-(6-Fluoro-imidazo[1,2-a]pyridin-3-yl)-1-(2,2,2-trifluoro-ethyl)-1H-pyrazolo[4,3-c]pyridin-6-yl]-(4-hydroxy-piperidin-1-yl)-methanone] are under 1000 nM and under 100 nM.
Take `O=C(c1cc2c(cn1)c(-c1cnc3c(F)cc(F)cn13)nn2CC(F)(F)F)N1CCC(O)CC1` [Compound 132, [3-(6,8-Difluoro-imidazo[1,2-a]pyridin-3-yl)-1-(2,2,2-trifluoro-ethyl)-1H-pyrazolo[4,3-c]pyridin-6-yl]-(4-hydroxy-piperidin-1-yl)-methanone]: the IC50 at human A2B receptors and on human A2A receptors was under 100 nM in each case.
For `CC1(O)CCN(C(=O)c2cc3c(cn2)c(-c2cnc4c(F)cc(F)cn24)nn3CC(F)(F)F)CC1` [Compound 133, [3-(6,8-Difluoro-imidazo[1,2-a]pyridin-3-yl)-1-(2,2,2-trifluoro-ethyl)-1H-pyrazolo[4,3-c]pyridin-6-yl]-(4-hydroxy-4-methyl-piperidin-1-yl)-methanone], the figures for the IC50 on human A2B receptors and on human A2A receptors were under 1000 nM and under 100 nM, respectively.
`O=C(c1cc2c(cn1)c(-c1cnc3c(F)cc(F)cn13)nn2CC(F)(F)F)N1CC2CC1CO2` (centres unmarked) [Compound 135, [3-(6,8-Difluoro-imidazo[1,2-a]pyridin-3-yl)-1-(2,2,2-trifluoro-ethyl)-1H-pyrazolo[4,3-c]pyridin-6-yl]-(2-oxa-5-aza-bicyclo[2.2.1]hept-5-yl)-methanone]: the IC50 is under 1000 nM on human A2B receptors and under 100 nM at human A2A receptors.
Take `CC1CC(O)CCN1C(=O)c1cc2c(cn1)c(-c1cnc3c(F)cc(F)cn13)nn2CC(F)(F)F` (centres unmarked) [Compound 138, [3-(6,8-Difluoro-imidazo[1,2-a]pyridin-3-yl)-1-(2,2,2-trifluoro-ethyl)-1H-pyrazolo[4,3-c]pyridin-6-yl]-(4-hydroxy-2-methyl-piperidin-1-yl)-methanone]: the IC50 at human A2B receptors and on human A2A receptors was under 100 nM throughout.
Regarding `O=C(c1cc2c(cn1)c(-c1cnc3c(F)cc(F)cn13)nn2CC(F)(F)F)N1CC2CCC(C2)C1` [Compound 139, (3-Aza-bicyclo[3.2.1]oct-3-yl)-[3-(6,8-difluoro-imidazo[1,2-a]pyridin-3-yl)-1-(2,2,2-trifluoro-ethyl)-1H-pyrazolo[4,3-c]pyridin-6-yl]-methanone], the IC50 on human A2B receptors and on human A2A receptors was under 100 nM throughout.
On to `CC(C)C1CC(O)CCN1C(=O)c1cc2c(cn1)c(-c1cnc3c(F)cc(F)cn13)nn2CC(F)(F)F` (centres unmarked) [Compound 141, [3-(6,8-Difluoro-imidazo[1,2-a]pyridin-3-yl)-1-(2,2,2-trifluoro-ethyl)-1H-pyrazolo[4,3-c]pyridin-6-yl]-(4-hydroxy-2-isopropyl-piperidin-1-yl)-methanone], for which the results for the IC50 at human A2B receptors and at human A2A receptors were under 1000 nM and under 100 nM, respectively.
As to `CC1(C)CC(O)CCN1C(=O)c1cc2c(cn1)c(-c1cnc3c(F)cc(F)cn13)nn2CC(F)(F)F` (centres unmarked) [Compound 142, [3-(6,8-Difluoro-imidazo[1,2-a]pyridin-3-yl)-1-(2,2,2-trifluoro-ethyl)-1H-pyrazolo[4,3-c]pyridin-6-yl]-(4-hydroxy-2,2-dimethyl-piperidin-1-yl)-methanone], the IC50 on human A2B receptors was under 1000 nM; on human A2A receptors, under 100 nM.
On the same counts, the results for `CC(C)CC1CN(C(=O)c2cc3c(cn2)c(-c2cnc4c(F)cc(F)cn24)nn3CC(F)(F)F)CCC1O` (centres unmarked) [Compound 143, [3-(6,8-Difluoro-imidazo[1,2-a]pyridin-3-yl)-1-(2,2,2-trifluoro-ethyl)-1H-pyrazolo[4,3-c]pyridin-6-yl]-(4-hydroxy-3-isobutyl-piperidin-1-yl)-methanone] are under 1000 nM and under 100 nM.
The corresponding values for `O=C(c1cc2c(cn1)c(-c1cnc3c(F)cc(F)cn13)nn2CC(F)(F)F)N1CCC(F)CC1` [Compound 144, [3-(6,8-Difluoro-imidazo[1,2-a]pyridin-3-yl)-1-(2,2,2-trifluoro-ethyl)-1H-pyrazolo[4,3-c]pyridin-6-yl]-(4-fluoro-piperidin-1-yl)-methanone] are under 1000 nM and under 100 nM.
On the same counts, the results for `O=C(c1cc2c(cn1)c(-c1cnc3c(F)cc(F)cn13)nn2CC(F)(F)F)N1CCC(F)(F)CC1` [Compound 146, [3-(6,8-Difluoro-imidazo[1,2-a]pyridin-3-yl)-1-(2,2,2-trifluoro-ethyl)-1H-pyrazolo[4,3-c]pyridin-6-yl]-(4,4-difluoro-piperidin-1-yl)-methanone] are under 1000 nM and under 100 nM.
`O=C(c1cc2c(cn1)c(-c1cnc3c(F)cc(F)cn13)nn2CC(F)(F)F)N1CCC(O)(c2cccnc2)CC1` [Compound 147, [3-(6,8-Difluoro-imidazo[1,2-a]pyridin-3-yl)-1-(2,2,2-trifluoro-ethyl)-1H-pyrazolo[4,3-c]pyridin-6-yl]-(4′-hydroxy-3′,4′,5′,6′-tetrahydro-2′H-[3,4′]bipyridinyl-1′-yl)-methanone]: the figures for the IC50 at human A2B receptors and at human A2A receptors were under 1000 nM and under 100 nM, respectively.
On the same counts, the results for `O=C(c1cc2c(cn1)c(-c1cnc3c(F)cc(F)cn13)nn2CC(F)(F)F)N1CCC(O)(C(F)(F)F)CC1` [Compound 148, [3-(6,8-Difluoro-imidazo[1,2-a]pyridin-3-yl)-1-(2,2,2-trifluoro-ethyl)-1H-pyrazolo[4,3-c]pyridin-6-yl]-(4-hydroxy-4-trifluoromethyl-piperidin-1-yl)-methanone] are under 1000 nM and under 1000 nM.
The corresponding values for `COCC1CCCN1C(=O)c1cc2c(cn1)c(-c1cnc3c(F)cc(F)cn13)nn2CC(F)(F)F` (centres unmarked) [Compound 149, [3-(6,8-Difluoro-imidazo[1,2-a]pyridin-3-yl)-1-(2,2,2-trifluoro-ethyl)-1H-pyrazolo[4,3-c]pyridin-6-yl]-(2-methoxymethyl-pyrrolidin-1-yl)-methanone] are under 1000 nM and under 100 nM.
Turning to `O=C(c1cc2c(cn1)c(-c1cnc3c(F)cc(F)cn13)nn2CC(F)(F)F)N1CCCC(O)C1` (centres unmarked) [Compound 151, [3-(6,8-Difluoro-imidazo[1,2-a]pyridin-3-yl)-1-(2,2,2-trifluoro-ethyl)-1H-pyrazolo[4,3-c]pyridin-6-yl]-(3-hydroxy-piperidin-1-yl)-methanone], the IC50 at human A2B receptors is under 1000 nM; on human A2A receptors, under 100 nM.
For the molecule `O=C(c1cc2c(cn1)c(-c1cnc3c(F)cc(F)cn13)nn2CC(F)(F)F)N1CC2COCC2C1` (centres unmarked) [Compound 154, [3-(6,8-Difluoro-imidazo[1,2-a]pyridin-3-yl)-1-(2,2,2-trifluoro-ethyl)-1H-pyrazolo[4,3-c]pyridin-6-yl]-(tetrahydro-furo[3,4-c]pyrrol-5-yl)-methanone], the IC50 on human A2B receptors (recombinant HEK293 cells expressing human A2B receptor, agonist NECA, cAMP HTRF, 15 min incubation) is under 1000 nM; at human A2A receptors (recombinant HEK293 cells expressing human A2A receptor, agonist NECA, cAMP HTRF, 15 min incubation), under 100 nM.
On to `O=C(c1cc2c(cn1)c(-c1cnc3c(F)cc(F)cn13)nn2CC(F)(F)F)N1CCCC(F)(F)C1` [Compound 159, [3-(6,8-Difluoro-imidazo[1,2-a]pyridin-3-yl)-1-(2,2,2-trifluoro-ethyl)-1H-pyrazolo[4,3-c]pyridin-6-yl]-(3,3-difluoro-piperidin-1-yl)-methanone], for which the IC50 was under 1000 nM on human A2B receptors and under 100 nM at human A2A receptors.
